From patent USRE45916E1, “Intraoperative imaging of renal cortical tumors and cysts” (University of Rochester, priority 2006, dated 2016)
Entries after “also recorded” stand apart in the source; their conditions may differ. Like-named read-outs stand apart in the source and are kept apart here.

Key:
[1] = mammals, several months after the treatment, cited from earlier work
[2] = tested on: renal cortical tumors and cysts; assay: Clinical trial: intraoperative near infrared fluorescence (NIRF) imaging of the kidney after intravenous ICG in radical or partial nephrectomy patients; format: in vivo, human
[3] = Clinical trial: safety of intravenous ICG in nephrectomy patients; format: in vivo, human; conditions: ten patients, ICG intravenously
Description: Following Institutional Review Board approval, a clinical trial of the invention was conducted. Ten patients presenting for radical or partial nephrectomy were enrolled in the trial. After the kidney was mobilized (typically, only one of the patient's kidneys is involved in such operations), ˜10 cc (2.5 mg/ml) of ICG was injected intravenously. Shortly after injection, near infrared fluorescence (NIRF) imaging was conducted and recorded using a LUNA™ NIRF system (Novadaq Technologies Inc, Mississauga, Canada).
Microscopy and histological studies were performed on excised tissue. […] Histological examination using hematoxylin and eosin staining confirmed the location of differential ICG fluorescence in tumor and normal renal tissue. All surgical margins were negative: 4 mm (the range of the margin was from 2-10 mm).

[4] = Animal studies: ICG injected into the penis to image nerves, kidney fluorescence observed; format: in vivo; conditions: animals
Description: The present invention stems in part from studies we took in using the near infrared fluorescent dye indocyanine green (“ICG”) to image cavernous nerves of the penis. When abdominal incisions were made, we noted that the kidneys were fluorescent for hours to days after ICG administration, even though ICG is cleared quickly from the circulation. Because we are urologists, we are aware that kidney tumors tend to be hypervascular and develop rich vascular beds that are not uniform. We formed the hypothesis that the vascular beds would tend to impede the flow of ICG out of the tumor. We realized that any difference in admission or retention of fluorescent dye between normal and tumor tissue would result in different amounts of fluorescence, and that these differences could be exploited to detect the presence or absence of tumors in areas of the kidney. We hypothesized that kidney tumors would tend to retain ICG more than areas of the kidney with normal vasculature, and that areas within the kidney that fluoresced when exposed to light of an appropriate excitation frequency would identify the presence of tumors.
Typically, the dye is administered sufficiently before the intended surgery to permit the kidney to take up the dye, but not so long before the surgery that the dye has been cleared by the liver or otherwise eliminated from the body. […]

[5] = tested on: intrinsic brain tumors; conditions: nine patients, ICG as intravenous contrast-enhancement agent; cited from earlier work
[6] = cited from earlier work

kidney fluorescence 18 hours after injection ([4]; ICG injected into the penis, 18 hours after injection)	duration of kidney fluorescence after ICG administration ([4]; seen at abdominal incision)	Compound	neuronal toxicity [1]	neuronal toxicity ([1]; listed as fluorogold)	surgical margins ([2]; partial nephrectomy under NIRF imaging)	fluorescence of complex / hemorrhagic cysts under NIRF imaging ([2]; patients, ICG intravenously)	fluorescence of normal kidney tissue under NIRF imaging ([2]; patients, ICG intravenously)	fluorescence of kidney tumors under NIRF imaging ([2]; patients, ICG intravenously, ~10 cc (2.5 mg/ml), against normal kidney parenchyma)	fluorescence of benign cysts under NIRF imaging ([2]; patients, ICG intravenously, compared to normal parenchyma)	effects of the dye on post-operative hepatorenal function [3]	hypersensitivity reactions [3]	dynamic optical signals of brain tissue and tumors [5]	optical imaging of resection margins in malignant tumors [5]	metabolism ([6]; in the body)	excretion ([6]; in vivo)	reabsorption from the intestine / enterohepatic recirculation ([6]; in vivo)	distribution after intravenous injection ([6]; with normal vascular permeability)
		N=C(N)c1ccc(/C=C/c2ccc(C(=N)N)cc2O)cc1 [Fluorogold]	low evidence of neuronal toxicity	without evidence of neuronal toxicity													
intense fluorescence	hours to days	CC1(C)C(/C=C/C=C/C=C/C=C2\N(CCCCS(=O)(=O)O)c3ccc4ccccc4c3C2(C)C)=[N+](CCCCS(=O)(=O)[O-])c2ccc3ccccc3c21 [ICG, indocyanine green]			negative	hypo- or non-fluorescent; also recorded: NIRF characteristics of renal cell carcinoma	fluoresced brightly; also recorded: brightly fluorescent	non-fluorescing “black” or hypofluorescent “gray” areas; also recorded: hypo- or non-fluorescent areas; also recorded: hypo-fluorescent or non-fluorescent areas	even more fluorescent than did normal tissue; also recorded: increased fluorescence compared to the normal parenchyma	No hypersensitivity reactions or effects of the dye on post-operative hepatorenal function were observed	No hypersensitivity reactions	differences in the dynamic optical signals among normal brain, low-grade astrocytomas, and malignant astrocytomas	differences between adjacent normal tissue and remaining tumor tissue	not metabolized in the body	excreted exclusively by the liver	not reabsorbed from the intestine and does not undergo enterohepatic recirculation	remains intravascular
